Data taken from EP4778516A1, “CALCIFICATION ENHANCER FOR OSTEOBLAST MC3T3-E1 CELL” (Watanabe Oyster Laboratory Co., Ltd., priority 2023, dated 2025).

Tested on: MC3T3-E1 cells
Test: Effects of conditioned medium of LPS-stimulated RAW264.7 cells on MC3T3-E1 cells
Type: cell-based, mouse
Procedure: A conditioned medium was obtained by culturing RAW264.7 cells.
RAW264.7 cells (1×10^5 cells/ml per well in a 24-well plate) were cultured for 3 days after reaching subconfluence in DMEM containing 10% FBS and 1% P/S in the presence or absence of LPS (concentration in the medium: 100 ng/ml). After the cells were cultured, the medium (conditioned medium) was collected.
To evaluate the effects of the conditioned medium on proliferation of MC3T3-E1 cells, MC3T3-E1 cells were cultured for 3 days in a-MEM containing 10% FBS and 1% P/S. The cells were then cultured for 3 days using either the conditioned medium (1 ml, control) cultured without LPS or the conditioned medium (0.25 or 0.50 ml per well, adjusted to 1 ml with normal medium) cultured with LPS in the presence or absence of DHMBA (1 or 10 mM).
Further, to examine the effects on cell death of MC3T3-E1 cells, the cells (1×10^5 cells/ml per well) were cultured for 3 days in a-MEM containing 10% FBS and 1% P/S. After reaching subconfluence, the medium was replaced. The cells were then further cultured for 48 hours in either the normal medium, the conditioned medium (1 ml) cultured without LPS, or the conditioned medium (0.25 or 0.50 ml per well, adjusted to 1 ml with normal medium) with either a reagent vehicle (1% ethanol as final concentration) or DHMBA (1 or 10 mM). After culture, the cells were detached from each culture well, and cell numbers were counted in the same manner as described above.
Further, the effects of Bay 11-7082, which is an NF-kB signaling inhibitor, on proliferation or cell death of MC3T3-E1 cells were investigated. First, to examine the effects of Bay 11-7082 on proliferation of MC3T3-E1 cells, the cells (1×10^5 cells/1 ml per well in a 24-well plate) were cultured for 3 days until reaching subconfluence in the presence of 10% FBS, 1% P/S, and either a reagent vehicle (1% ethanol as final concentration) or Bay 11-7082 (1, 10, 50, 100, or 1000 nM). Next, MC3T3-E1 cells were cultured for 3 days in the presence of the conditioned medium (0.5 ml per well, adjusted to a total of 1 ml with normal medium) with or without Bay 11-7082 (1 or 10 nM) in the presence or absence of DHMBA (10 mM).
In another experiment, to evaluate the effects of Bay 11-7082 on cell death of MC3T3-E1, the cells (1×10^5 cells/1 ml per well in a 24-well plate) were cultured in a-MEM containing 10% FBS and 1% P/S. After culturing for 3 days until reaching subconfluence, the medium was replaced with a-MEM (1 ml) containing either the normal medium or the conditioned medium prepared by adding the normal medium to 0.5 ml per well of the conditioned medium, adjusted to a total volume of 1 ml. The cells were then further cultured for 48 hours in the presence of Bay 11-7082 (1 or 10 nM), or Bay 11-7082 (10 nM) in combination with DHMBA (10 mM). After culture, the cells were detached from each culture well, and cell numbers were counted as described above.

**Q.** How did the “suppressive effect of DHMBA on conditioned-medium-induced suppression of proliferation, in combination with Bay 11-7082” value (DHMBA in the presence of Bay 11-7082) turn out when `COc1c(O)cc(CO)cc1O` [DHMBA, 3,5-dihydroxy-4-methoxybenzyl alcohol] was run?
**A.** not further enhanced

**Q.** And the “enhancement of death of MC3T3-E1 cells by the conditioned medium” value (conditioned medium 0.5 ml, DHMBA 1 or 10 mM, 48 hours, Fig. 6B)?
**A.** suppressed

**Q.** And the “inhibition of proliferation of MC3T3-E1 cells by the conditioned medium” value (conditioned medium with LPS stimulation, DHMBA 1 or 10 mM, 3 days, Fig. 6A)?
**A.** prevented
